Test results reported in US20080305049A1, “Mri Contrast Agents for Diagnosis and Prognosis of Tumors” (priority 2005, published 2008).
Entries after “also recorded” stand apart in the source; their conditions may differ.

Experiments:
[1] = target: T1, estrogen receptor (ER)-α in MCF7 cells (Homo sapiens, UniProt P03372); experiment: Western blot of ER-α level relative to tubulin; assay type: cell-based; conditions: 6 hours after treatment
T1 construct: endogenous in cells; host or cells: MCF7 human breast cancer cells
T1 sequence (P03372 1-595): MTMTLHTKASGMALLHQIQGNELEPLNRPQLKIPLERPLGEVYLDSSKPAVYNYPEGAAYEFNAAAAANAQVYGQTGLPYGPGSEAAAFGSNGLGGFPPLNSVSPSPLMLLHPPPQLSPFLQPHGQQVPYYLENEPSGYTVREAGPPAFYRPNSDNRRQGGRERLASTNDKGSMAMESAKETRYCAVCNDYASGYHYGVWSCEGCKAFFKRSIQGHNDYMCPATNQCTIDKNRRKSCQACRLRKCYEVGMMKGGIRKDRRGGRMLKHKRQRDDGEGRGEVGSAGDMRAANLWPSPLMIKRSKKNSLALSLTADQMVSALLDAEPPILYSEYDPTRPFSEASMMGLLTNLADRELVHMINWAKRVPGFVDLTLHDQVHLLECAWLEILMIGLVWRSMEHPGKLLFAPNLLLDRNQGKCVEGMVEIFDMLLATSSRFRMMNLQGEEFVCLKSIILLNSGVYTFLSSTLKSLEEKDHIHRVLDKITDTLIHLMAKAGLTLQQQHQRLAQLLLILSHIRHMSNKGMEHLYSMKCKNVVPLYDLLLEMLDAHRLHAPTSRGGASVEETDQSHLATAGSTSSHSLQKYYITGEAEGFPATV
Source text: FIG. 10B is a graph showing the quantitative analysis of the blots in terms of ER expression relative to tubulin expression under the various treatments as indicated in the figure.
We then carried out a Western blot for determining the level of the estrogen receptor protein using an anti-ER antibody to identify ER in the blot. […] FIG. 10A depicts the Western blot and FIG. 10B depicts quantitation of the blot: the amount of ER relative to tubulin, assuming tubulin is constant under all treatment manipulations.

[2] = system: MCF7, T47D and ZR-75-1 ER+ human breast cancer cells; experiment: proliferation of ER+ human breast cancer cells (MTT method); assay type: cell-based; conditions: for agonistic or antagonistic effect on proliferation: 2 μM
Protocol: The agonistic or antagonistic effects of the conjugates and metal complexes thereof were studied by their capacity to enhance or arrest cell growth, respectively.
The vehicle (water) was added as control and served to normalize the changes in cell number.

[3] = target: T2, human recombinant ER (ERα) (Homo sapiens, UniProt P03372); experiment: competitive radiometric binding assay with tritiated estradiol; conditions: for IC50 / Ki: human recombinant ER; for IC50: read-out: IC50, concentration of competing ligand required to replace half of the ER bound tritiated estradiol; for Ki: read-out: Ki, calculated equilibrium concentration of competing ligand that binds half of the ER binding sites
T2 sequence (P03372 1-595): T1 sequence (P03372 1-595)
Protocol: This procedure yields IC50 displacement values for the inhibition of the binding of tritiated estradiol to the ER. Low IC50 values correlates to high binding affinities.
The binding affinities were determined by performing a competitive radiometric-binding assay using tritiated estradiol and human recombinant ER. […] Table 1 presents the concentration of the competing ligand required to replace half of the ER bound tritiated estradiol, IC50, and the calculated equilibrium concentration of the competing ligand that will bind to half of the ER binding sites, Ki.

[4] = toxicology after intravenous injection; assay type: in vivo, CD1-NU mice
Source text: (§1) Animals: CD1-NU immunodeficient female mice (6-10 weeks old, 20-25 g weight) were provided by the Animal Unit of the Weizmann Institute of Science. During the MRI experiments, the animals were anesthetized by inhalation of 1% Isoflurane in an O2:N2O (3:7) mixture, applied through a nose cone. All animals were handled according to the regulations formulated by the Institutional Animal Care and Use Committee (IACUC) of the Weizmann Institute of Science (Rehovot, Israel).
Toxicology: The probes (e.g. Gd complex 7) were injected into the tail vein of CD1-NU mice at a varying dose in the range of 0.024 to 1.0 mmol/kg weight.

[5] = system: orthotopic ER+ MCF7 breast tumor; experiment: in vivo MRI monitoring of distribution and binding in mice with orthotopic MCF7 breast tumor; set-up: species or system CD1-NU immunodeficient female mice
Source text: as §1
(§2) Tumors: ER^+ human breast cancer MCF-7 cells were implanted orthotopically into the mammary gland of the CD1-NU immunodeficient female mice, as previously described (Paran et al., 2004). The mice were ovariectomized to eliminate any […] estrogen. Initially a pellet of 17β-estradiol (Innovative Research, Florida) was implanted before the cells were injected, to ensure growth of the tumors. Within 3 weeks, tumors developed to a size of about ˜0.5 ml and consisted of highly proliferating cells. At this stage we removed the estrogen pellet and after a week administered the MRI probe. The extent of accumulation in the tumors was studied in vivo and in excised tumors and was then compared to results obtained by the standard immunostaining technique.
(§3) MRI: The accumulation of the MRI probe was tested by scanning the tumors before the injection of the probe and at times after the injection, using T1 weighted and T2 weighted pulse sequences. MR images were recorded with a 4.7 Tesla scanner (Bruker; Biospec 4.7 T/30 cm bore, dedicated Doty resonator, 3 cm diameter, 200 MHz for protons). The MRI parameters for scanning T2-weighted images were: 2D Spin echo with: TE/TR=69 msec/4000 msec, field of view (FOV) 5 cm, slice thickness 1.2 mm and 128×256 matrix. For T1 measurements two pulse sequences were employed: 1. Inversion recovery pulse sequence with varying T1 (n=20) ranging from 10 to 10000 msec, TE/TR=3.15 msec/15 msec, flip angle 10 degrees; 2. Fast gradient echo sequence. The spatial resolution was as in the T2 weighted image except the matrix was 128×128.
(§4) Distribution of the MR probes: The distribution of the Gd complex 7 in the blood, inner organs and the tumors was monitored over a period of 24 h after a bolus injection of 7 into the tail vein at a dose ranging from 0.024 to 0.4 mmol/kg.
(§5) The contrast agent distribution was monitored, alternating between two pulse sequences: 1. T1-weighted, 3D gradient echo with TE/TR of 4.3/18.3 ms; a 30° flip angle, 2. 2D inversion or saturation recovery sequence with varying T1 (n=20) ranging from 10 to 10000 msec, and gradient echo acquisition with TE/TR of 3.5/15 msec and 100 flip angel. The latter sequence enabled us to map the T1 relaxation time. The spatial resolution was the same for both sequences and during the whole experiment time, namely, 0.2×0.4×1.2 mm^3. Susceptibility gradient echo and T2 weighted spin echo protocols were employed to generate the MR images of the animal.
(§6) Several protocols of administration of the Gd complex 7 were examined: a high and low dose bolus injection of 0.4 mmol/kg and 0.024 mmol/kg, respectively (FIGS. 7 and 8), and a slow infusion (drip) protocol over 60 min of the high dose.
(§7) To determine the ER-binding of 7 administered at low concentration (0.024 mmol/kg), we performed measurements up to 24 after its administration, when all the tissues appeared to be cleared from the probe. FIGS. 7A-7B show the time course of the T1 relaxation in the bladder, orthotopic MCF7 breast tumor and muscle of a female CD1-NU immunodeficient mouse after a bolus administration of a low dose of 7 (0.024 mmol/kg) (7B) and the area of each organ as marked on the upper T2-weighted image (FIG. 7A). The images at 0, 0.5 and 2.5 h were recorded with the anaesthetized mouse in the same position. After the 2.5 h measurement, the mouse was returned to its cage and was again scanned under anesthesia at the 7 and 24 hours time points. […] The central slice of each organ is presented. […]

[6] = as above; set-up: species or system CD1-NU immunodeficient female mice; conditions: female, CD1-NU, mouse, tumor (orthotopic MCF7 breast tumor), intravenous; 24 hours after bolus 0.024 mmol/kg, calculated from relaxation rates; read-out: apparent concentration in the tumor
Source text: as §1, §2, §3, §4, §5, §6, §7

[7] = T1 and T2 relaxivity of water at 4.7 Tesla; assay type: physicochemical
Protocol: The T1 and T2 relaxivity of the MRI probes, i.e., the Gd complexes of the invention, were measured in saline solutions using standard protocols (i.e inversion recovery for T1 relaxivity and Carr-Purcell-Meiboom-Gill (CPMG) for T2 relaxivity).
The capacity of the Gd complex 7 to serve as a relaxation contrast agent was determined by measuring its relaxivity. […] For the T1 relaxivity measurement, a spin echo sequence was employed with a varying repetition time-TR (11 TRs, from 50 to 15,000 msec) and a fixed echo time of 23 msec.
The T1 relaxivity was determined from the slope.
We determined the MRI properties of the novel paramagnetic ER ligands. T1 and T2 relaxation rates of the water protons were measured as a function of the concentration of the Gd complex 7.

rat uterus = experiment: MRI of the uterus of ovariectomized rats; assay type: in vivo; conditions: 0.024 mmol/kg
Protocol: We developed and applied in vivo tests of the Gd complex 7 in the classical target organ of estrogen (the rat uterus). […] In order to be able to delineate the uterus, we applied a newly developed segmentation algorithm that enables us to automatically monitor changes in the entire uterine volume and in the changing nuclear relaxation rates due to interaction with 7. […] The endometrium volume increased by 45%, over the entire monitoring period of 5.5 hours, indicating response to the Gd complex 7, as shown in FIGS. 11A-11E.
FIG. 11A depicts the T2-weighted images prior to administration and FIG. 11B depicts the T2-weighted images after 5 hours of administration of compound 7 (the endometrium is circled in green) with the corresponding 3D automatically delineated right horn (FIGS. 11C and 11D) and the corresponding changes in the volume during the entire time course (FIG. 11E).

MDA-MB-231 cells = experiment: proliferation of ER− human breast cancer cells (MTT method)
Protocol: The number of cells was determined spectrophotometrically using the MTT [3-(4,5-dimethylthiazol-2-yl)-2,5-diphenyltetrazolium bromide] method. The samples are read using an ELISA plate reader at a wavelength of 570 nm. The amount of color produced is directly proportional to the number of viable cells.

[8] = bolus 0.4 mmol/kg, about 5 hours

SMILES: CC/C(=C(\c1ccc(C#Cc2cc(CN(CC(=O)O)CC(=O)O)nc(CN(CC(=O)O)CC(=O)O)c2)cc1)c1ccc(OCCN(C)C)cc1)c1ccccc1 [Compound 16]
- effect on ER-α level [1]: acted like tamoxifen; also recorded: do not affect ER level
- hormonal activity (summary statement) [2]: antagonist to estrogen
- agonistic or antagonistic effect on proliferation ([2]; MCF7, T47D): did not elicit an estrogenic effect
- IC50 [3]: 5300 nM
- Ki [3]: 480 nM

SMILES: CC12CCC3c4ccc(O)cc4CCC3C1CCC2(O)C#Cc1cc(CN(CC(=O)O)CC(=O)O)nc(CN(CC(=O)O)CC(=O)O)c1 (stereo not shown) [Compound 7]
- toxicity (summary statement) ([4]; mice and rats): non toxic in mice and rats
- tolerability of repetitive administration ([4]; repetitive administration 3-7 days apart): appeared to be harmless
- lethality and adverse effects ([4]; up to 0.4 mmol/kg, intravenous, CD1-NU mice): not lethal and does not cause obvious adverse effects; also recorded: non-toxic
- effect on ER-α level [1]: induced partial degradation of the receptor; also recorded: induce ER reduction
- final concentration in tumor versus muscle ([5]; 2 h after 1 hour slow infusion of 0.4 mmol/kg): similar
- muscle T1 relaxation rate (R1) ([5]; 24 hours after 0.024 mmol/kg): returned to that measured before
- tumor T1 relaxation rate (R1) increase ([5]; 24 hours after 0.024 mmol/kg): small but persistent
- residual amount in the muscle ([5]; 24 hours after bolus 0.024 mmol/kg): no residual amount
- clearance through the kidneys into the urine compared with GdDTPA ([5]; bolus 0.4 mmol/kg): several folds slower
- time of full clearance after administration ([5]; bolus 0.4 mmol/kg): 24 h
- MRI signal enhancement in the muscle [5, 8]: declined close to pre-contrast administration
- MRI signal enhancement in the tumor [5, 8]: persisted throughout the experimental time
- concentration at 24 h [6]: 2500 nM
- T1 relaxivity [7]: 7.99 ± 0.05 mM⁻¹ s⁻¹
- T2 relaxivity [7]: 30.8 ± 1.0 mM⁻¹ s⁻¹
- effect in the uterus (rat uterus): agonistic effect in the uterus
- increase of endometrium volume (rat uterus; over 5.5 hours): 45%
- sensitivity of proliferation of ER− cells (MDA-MB-231 cells): neither sensitive
- binding affinity to ER (in words) [3]: strong binding affinity to ER, comparable to that of tamoxifen

SMILES: C[C@]12CC[C@@H]3c4ccc(O)cc4CC[C@H]3[C@@H]1CC[C@@H]2O [17β-estradiol, reference compound]
- sensitivity of proliferation of ER− cells (MDA-MB-231 cells): neither sensitive

SMILES: C[C@]12CC[C@@H]3c4ccc(O)cc4C[C@@H](CCCCCCCCC[S+]([O-])CCCC(F)(F)C(F)(F)F)[C@H]3[C@@H]1CC[C@@H]2O (stereo partly shown) [ICI-182780, reference compound]
- effect on ER-α level [1]: down regulation

SMILES: C[C@]12CCC3c4ccc(O)cc4CCC3C1CC[C@@]2(O)C#Cc1cc(CN(CC(=O)O)CC(=O)O)nc(CN(CC(=O)O)CC(=O)O)c1 (stereo partly shown) [Compound 6]
- effect on ER-α level [1]: induced partial degradation of the receptor; also recorded: induce ER reduction
- sensitivity of proliferation of ER− cells (MDA-MB-231 cells): neither sensitive
- dose at which induction of proliferation occurred ([2]; ER+ human breast cancer cells): nanomolar
- stimulation of cell growth ([2]; MCF7, T47D, ZR-75-1, 30 nM or 1 μM): stimulated the growth of the cells in a similar manner to that of estrogen
- agonistic or antagonistic effect on proliferation ([2]; MCF7, T47D): agonistic
- toxicity to cells ([2]; high concentrations): toxic at high concentrations
- IC50 [3]: 4400 nM
- Ki [3]: 400 nM
